The test has as its target SARS-CoV-2 3CL-protease (Severe acute respiratory syndrome coronavirus 2, UniProt P0DTD1). As to the kind of experiment: SARS-CoV-2 3C-Like (3CL) Protease Fluorescence Assay (FRET). Type of test: biochemical. To be noted: SARS-CoV-2 3CL-protease 10 nM, 30 min preincubation at RT, substrate 40 μM.
For orientation: IC50 means the midpoint of a concentration-inhibition curve. `CC(C)(F)C[C@H](NC(=O)COc1ccc(F)cc1F)C(=O)N1C[C@]2(C[C@H]1C#N)C(=O)Nc1ccc(Cl)cc12` [Example 445] displayed an IC50 of 100 to 1000 nM.
The figure for `CC(C)C[C@@H](C(=O)N1C[C@]2(C[C@H]1C#N)C(=O)Nc1ncccc12)N(C)C(=O)c1cc2c(F)cc(F)c(F)c2[nH]1` [Example 550] is under 100 nM; for `CC(C)C[C@@H](C(=O)N1C[C@]2(C[C@H]1C#N)C(=O)Nc1ccccc12)N(C)C(=O)c1cc(OC2CC2)n2nc(C3CC3)c(C(=O)C(F)(F)F)c2c1` [Example 313] it is 100 to 1000 nM; for `Cc1cccc2[nH]c(C(=O)N(C)[C@@H](CC(C)C)C(=O)N3C[C@]4(C[C@H]3C#N)C(=O)Nc3ccccc34)nc12` [Example 252] it is under 100 nM.
The figure for `N#C[C@@H]1C[C@@]2(CN1C(=O)[C@H](CC1CC1)NC(=O)c1cc3c(F)cc(F)cc3[nH]1)C(=O)Nc1ccc(Cl)cc12` [Example 453] is under 100 nM; for `CC(C)C[C@@H](C(=O)N1C[C@]2(C[C@H]1C#N)C(=O)Nc1ccc(Cl)cc12)N(C)C(=O)c1cc2cccnc2[nH]1` [Example 468] it is under 100 nM; for `N#C[C@@H]1C[C@@]2(CN1C(=O)[C@H](CC1CC1)NC(=O)c1c(Cl)cccc1Cl)C(=O)Nc1ccc(Cl)cc12` [Example 525] it is under 100 nM.
The figure for `CC(C)C[C@@H](C(=O)N1C[C@]2(C[C@H]1C#N)C(=O)Nc1ccccc12)N(C)C(=O)c1nnc(C2CC2)o1` [Example 354] is under 100 nM.
For the compound `[2H]C([2H])([2H])N(C(=O)c1cc2c(F)cc(F)cc2[nH]1)[C@@H](CC(C)(C)F)C(=O)N1C[C@]2(C[C@H]1C#N)C(=O)Nc1cc(C(F)(F)F)ccc12` [Example 472, N—((S)-1-((3R,5′S)-5′-cyano-2-oxo-6-(trifluoromethyl)spiro[indoline-3,3′-pyrrolidin]-1′-yl)-4-fluoro-4-methyl-1-oxopentan-2-yl)-4,6-difluoro-N-(methyl-d3)-1H-indole-2-carboxamide], the IC50 was under 100 nM.
`CC(C)(C)C[C@H](NC(=O)c1cn(CC(F)(F)F)nn1)C(=O)N1C[C@]2(C[C@H]1C#N)C(=O)Nc1ccccc12` [Example 143] gave an IC50 of under 100 nM.
The compound `CC(C)C[C@@H](C(=O)N1C[C@]2(C[C@H]1C#N)C(=O)Nc1ccccc12)N(C)C(=O)c1cc(F)cc(Cl)c1` [Example 173] returned an IC50 of under 100 nM.
The figure for `CC(C)C[C@@H](C(=O)N1C[C@]2(C[C@H]1C#N)C(=O)Nc1ccccc12)N(C)C(=O)c1nc2ccccc2[nH]1` [Example 205] is under 100 nM; for `CC(C)C[C@@H](C(=O)N1C[C@]2(C[C@H]1C#N)C(=O)Nc1ccccc12)N(C)C(=O)c1ccc(Cl)c(C(F)(F)F)c1` [Example 174] it is under 100 nM.
In turn, `CC(C)C[C@@H](C(=O)N1C[C@]2(C[C@H]1C#N)C(=O)Nc1ccccc12)N(C)C(=O)c1cn(-c2ccccc2)nn1` [Example 338] returned an IC50 of under 100 nM.
The figure for `CC(C)C[C@@H](C(=O)N1C[C@]2(C[C@H]1C#N)C(=O)Nc1ccccc12)N(C)C(=O)c1cccc(-c2ccc(C(F)(F)F)cc2)c1` [Example 263] is 100 to 1000 nM; for `Cc1cccc(CC(=O)N(C)[C@@H](CC(C)(C)F)C(=O)N2C[C@]3(C[C@H]2C#N)C(=O)Nc2ccc(Cl)cc23)n1` [Example 487] it is under 100 nM; for `Cc1cccc2c1[C@@]1(C[C@@H](C#N)N(C(=O)[C@H](CC(C)C)NC(=O)c3cc4c(F)cccc4[nH]3)C1)C(=O)N2` [Example 529] it is 100 to 1000 nM.
The figure for `CC(C)C[C@@H](C(=O)N1C[C@]2(C[C@H]1C#N)C(=O)Nc1ccc(C(=O)N3CCOCC3)cc12)N(C)C(=O)c1cc2c(F)cc(F)cc2[nH]1` [Example 502, N—((S)-1-((3R,5′S)-5′-cyano-5-(morpholine-4-carbonyl)-2-oxospiro[indoline-3,3′-pyrrolidin]-1′-yl)-4-methyl-1-oxopentan-2-yl)-4,6-difluoro-N-methyl-1H-indole-2-carboxamide] is under 100 nM.
The figure for `CN(C(=O)c1cn(-c2ccc(F)cc2)nn1)[C@@H](Cc1ccccc1)C(=O)N1C[C@]2(C[C@H]1C#N)C(=O)Nc1ccccc12` [Example 357] is under 100 nM.

Source of the values: patent US12540141B2, “Spiropyrrolidine derived antiviral agents” (priority 2020, dated 2026).
